Values of other authors as cited in EP0424512B1, “ANTIMETASTATIC PEPTIDES” (SRI INTERNATIONAL, priority 1989, dated 1990).

Test system: human fibrosarcoma HT-1080 and Chinese hamster ovary cells
Settings: relative to laminin

CDPGYIGSR [nine amino acid peptide from domain III of laminin B₁ chain]
activity of laminin in cell attachment on a molar basis: 0.5-1%
